According to patent US11883447B2, “Methods and probiotic compositions for the treatment of metabolic diseases and disorders” (Research Development Foundation, priority 2019, dated 2024):

Columns and labels:
Lactobacillus Reuteri = test: Bacterial growth in media supplemented with polyamines; assay type: cell-based; details: in vitro, various concentrations in growth media
From the text: (§1) The inventors next investigated whether culturing several bacteria with beneficial metabolic effects can be affected by presence of polyamines in the growth media. […] To further address whether the general growth of bacteria present in fresh fecal samples is affected, we inoculated fresh mouse fecal content in a growth media supplemented with various concentrations of spermine or spermidine.

[1] = system: Parabacteroides goldsteinii; test: as above; assay type: cell-based; details: in vitro, various concentrations in growth media
From the text: as §1

Lactobacillus Gaseri = test: as above; assay type: cell-based; details: in vitro, various concentrations in growth media
From the text: as §1

[2] = system: bacterial mix from mouse fecal samples; test: Growth of bacterial mix from fresh mouse fecal content in media with polyamines; assay type: cell-based; details: in vitro, various concentrations; exponential growth phase
From the text: as §1

ovariectomized mice [3] = test: Oral glucose tolerance test (OGTT) in ovariectomized mice gavaged with bacteria; assay type: in vivo; details: oral gavage every second day
Protocol: (§2) Ovariectomy: Mice were anesthetised with Xylazin/Ketamin (injection of 120 μl of a mixture of 120 mg/kg ketamine and 16 mg/kg xylazine) and shaved below the ribs on the back side. Betadine was applied to the area for appropriate disinfection. After a 1-2 cm incision through the skin and the muscle layer just below the ribs, the ovary was localized, the fallopian tube ligated with dissolving suture and the ovary removed. The muscle layer was sutured with dissolving suture, the wound closed with staples and disinfected. The same procedure was performed on the other side. A dose of Tamgesic was administered 4 hours after the surgery, and the staples were removed 7 days after the surgery under isoflurane anaesthesia. The sham-operated animals underwent the same procedure, without ligating the fallopian tube and the ovary excision.
(§3) Single microbe transplantation: Lactobacillus Gasseri (DSM 20604) and Parabacteroides Goldsteinii (DSM 19948) were purchased from DSMZ. Lactobacillus reuteri (PTA-6475) and Akkermansia Muciniphila (BAA835) was purchased from ATCC. […]
(§4) Metabolic Experiments: Oral glucose tolerance tests (OGTT) were performed after 10 hr overnight fasting by oral gavage of glucose bolus ([…] body weight). […] Insulin level during the OGTT was measured with the Mouse Insulin ELISA kit (ref. 10-1247-01, Mercodia), following the manufacturer's instructions.

ovariectomized mice [4] = test: Insulin tolerance test in ovariectomized mice gavaged with bacteria; assay type: in vivo; details: 0.5 U/kg insulin, glycemia over 2 h
Protocol: as §2, §3, §4

Compound | Growth of Lactobacillus Reuteri (Lactobacillus Reuteri) | Growth of Parabacteroides goldsteinii [1] | Growth of Lactobacillus Gaseri (Lactobacillus Gaseri) | Optical density of fecal bacterial mix [2] | Oral glucose tolerance (ovariectomized mice [3]) | Insulin sensitivity (insulin tolerance test) (ovariectomized mice [4])
NCCCNCCCCNCCCN [spermine, N, N′-bis (3-aminopropyl)-1,4-butane diamine] | increased the growth | increased the growth | increased the growth | increased the optical density during the exponential growth phase |  | 
Lactobacillus Reuteri |  |  |  |  | improved | improved
NCCCCNCCCN [spermidine] | increased the growth | increased the growth | increased the growth | increased the optical density during the exponential growth phase |  | 
